Results taken from US8686021B2, “Use of a benzoyl derivative of 3-aminocarbazole for the treatment of a disorder associated with the production of prostaglandin E2 (PGE2)” (Aziende Chimiche Riunite Angelini Francesco A.C.R.A.F. …, priority 2005, dated 2014).

Key:
production of PGE2 = assay: In-vitro activity test: inhibition of PGE2 production in IL-1β-stimulated A549 cells; type: cell-based, human; conditions: 18 hours
Text: (§1) This test is used to evaluate capability to inhibit the production of PGE2 and selectivity with respect to the production of PGF2, for each of the compounds under examination.
(§2) Cell line A549, human lung adenocarcinoma, which is particularly sensitive to stimulation with proinflammatory cytokines such as IL-1β, and, in response to that stimulation, particularly active in the production and release of two prostanoids: PGE2 and PGF2α (Thoren S., Jakobsson P. J. “Coordinate up- and down-regulation of glutathione-dependent prostaglandin E synthase and cyclooxygenase-2 in A549 cells. Inhibition by NS-398 and leukotriene C4”, Eur. J. Biochem. 2000, 267(21):6428-6434)) was used.
(§3) The cells were stimulated with IL-1β (1 ng/ml) and at the same time treated with the compounds under test for 18 hours in an appropriate culture medium (DMEM—Dulbecco's Modified Eagles Medium) enriched with 5% bovine foetal serum and L-glutamine (4 mM final) in an incubator at 37° C. and with a CO2 concentration of 5%.
(§4) After incubation the quantities of PGE2 and PGF2α produced and released into the supernatant were determined using an EIA kit (manufactured and marketed by Cayman Chemicals, Ann Arbor, Mich., USA).
(§5) The results, shown in Table 3, are expressed as percentage inhibition of the production of PGE2 and PGF2α at a concentration of […].

production of PGF2α = assay: In-vitro activity test: inhibition of PGF2α production in IL-1β-stimulated A549 cells; type: cell-based, human; conditions: 18 hours
Text: as §1, §2, §3, §4, §5

production of PGI2 = assay: Test on human primary endothelial cells (HUVEC): secretion of PGI2; type: cell-based
Procedure: This test is used to evaluate the ability of the compounds in Table 2 to inhibit the production of PGI2.
The absence of inhibitory activity on these prostanoids may ensure that the vasoprotective action of PGI2 is maintained and provides useful pharmacological information about the absence of adverse effects on the endothelium.
Compound 1 was used in the test.
The action of the compound under test was evaluated in HUVEC cells under basal and stimulation conditions (J. Immunol. 1989 Jun. 1; 142(11):3993-9).
The results are shown in Table 6 and are expressed as percentage inhibition in comparison with control enzyme activity.
Indomethacin was used as the reference compound.

[1] = tested on: pained behaviour induced by acetic acid in mice; assay: In-vivo activity test: acetic acid-induced stretching (nociceptive test of inflammatory origin) in mice; conditions: female CD-1 mice; 30 mg/kg orally in methyl cellulose (MTC), 1 hour before acetic acid i.p.; mean±SD; vehicle MTC 58 ± 5
Procedure: This test makes it possible to evaluate the activity of the compounds according to this invention in a nociceptive test of inflammatory origin. Compound 1 was used for this purpose in an experimental model which provokes pained behaviour induced by acetic acid in mice (Stock, J. L. et al., J. Clin. Inv. 2001, 107:325-331). Female CD-1 mice weighing 25-30 g were used for the test.
The animals were treated orally with compound 1 (30 mg/kg) suspended in methyl cellulose (MTC). The control animals were treated with the vehicle (MTC) alone, orally.
One hour after treatment acetic acid (0.7% v/v in physiological solution, 16 μl/g of body weight) was injected into the animals intraperitoneally to induce inflammatory pain and check the effects of the treatment on the nociceptive response.
The number of stretches, which represents the evaluation parameter for the nociceptive response, was measured immediately after the administration of acetic acid and for the next 20 minutes.

[2] = 10 μM, A549 cells stimulated with IL-1β (1 ng/ml), EIA kit
[3] = A549 cells stimulated with IL-1β
[4] = Homo sapiens, 10 μM, A549 cells stimulated with IL-1β (1 ng/ml), EIA kit

Row | Compound | % inhibition at 10 μM PGE2 (production of PGE2; [2]) [%] | % inhibition at 10 μM PGF2α (production of PGF2α; [2]) [%] | pIC50 PGE2 (production of PGE2; [3]) | pIC50 PGF2α (production of PGF2α; [3]) | other results
1 | CCn1c2ccccc2c2cc(NC(=O)c3c(Cl)cccc3Cl)ccc21 [Compound 6] | 89 | 51 | – | – | –
2 | CCn1c2ccccc2c2cc(NC(=O)c3ccccc3[N+](=O)[O-])ccc21 [Compound 5] | 27 | 0 | – | – | –
3 | CCn1c2ccccc2c2cc(NC(=O)c3ccccc3Br)ccc21 [Compound 3] | 81 | 0 | 5.5 | <4 | –
4 | CCn1c2ccccc2c2cc(NC(=O)c3ccccc3OC)ccc21 [A, reference compound] | 98 | 95 | – | – | –
5 | CCn1c2ccccc2c2cc(NC(=O)c3cc([N+](=O)[O-])ccc3Cl)ccc21 [Compound 7] | 70 | 0 | – | – | –
6 | CCn1c2ccccc2c2cc(NC(=O)c3ccccc3I)ccc21 [Compound 4] | 84 | 0 | 5.4 | <4 | –
7 | COc1ccc2c(c1)c(CC(=O)O)c(C)n2C(=O)c1ccc(Cl)cc1 [Indomethacin, reference compound] | – | – | – | – | inhibition at 10 µM (production of PGE2; [4]): 100%; IC50 (production of PGE2; Homo sapiens, A549 cells stimulated with IL-1β, read-out: pIC50 PGE2 (converted)): 5.01 nM; inhibition at 10 µM (production of PGF2α; [4]): 100%; IC50 (production of PGF2α; Homo sapiens, A549 cells stimulated with IL-1β, read-out: pIC50 PGF2α (converted)): 2.51 nM; inhibition at 10 µM (production of PGI2; Homo sapiens, stimulation conditions, read-out: % inhibition, test for the secretion of PGI2, Stimulated (HUVEC)): 100%
8 | CCn1c2ccccc2c2cc(NC(=O)c3ccccc3)ccc21 [B, reference compound] | 46 | 40 | – | – | –
9 | CCn1c2ccccc2c2cc(NC(=O)c3ccccc3Cl)ccc21 [Compound 1] | 82 | 16 | 5.7 | 4.1 | No. stretches in 20 min [1]: 40 ± 5; % inhibition, test for the secretion of PGI2, Basal (HUVEC) (production of PGI2; 10 μM, basal conditions): 0%; % inhibition, test for the secretion of PGI2, Stimulated (HUVEC) (production of PGI2; 10 μM, stimulation conditions): 0%
10 | CCn1c2ccccc2c2cc(NC(=O)c3ccccc3C)ccc21 [Compound 2] | 83 | 44 | 5.3 | 4.3 | –
11 | CCn1c2ccccc2c2cc(NC(=O)c3ccc(C)cc3)ccc21 [C, reference compound] | 43 | 49 | – | – | –
12 | CCn1c2ccccc2c2cc(NC(=O)c3cc(Cl)ccc3Cl)ccc21 [Compound 8] | 93 | 37 | – | – | –
